Data reported in patent US8198320B2, “Hypoglycemic activity of osthole” (Taipei Medical University, priority 2008, dated 2012).

Key:
db/db diabetic mice [1] = experiment: Effect of intraperitoneal administration of osthole on blood glucose level of db/db diabetic mice; type: in vivo; details: male db/db mice, 50 mg/kg intraperitoneal once daily, five days a week for two weeks, fasted about 16 hours; before treatment about 360 mg/dL; DMSO control 550 mg/dL
Method: Six male db/db diabetic mice (6 to 11 week-old, purchased from National Laboratory Animal Center (Taipei, Taiwan)) were fasted for over 8 hours and venous blood was collected for the measurement of blood glucose level. The mice were divided into two groups (control group and experimental group) on the basis of their blood glucose level and body weight. The mice in the control group were given the solvent DMSO by means of intraperitoneal administration. The mice in the experimental group were given osthole (50 mg/kg body weight) (purchased from Hangzhou Gosun Biotechnologies Co., Zhejiang, China) by means of intraperitoneal administration. The solvent and osthole were administered once daily, five days a week for two weeks. The mice were then fasted for about 16 hours before being sacrificed and blood samples were collected for the measurement of blood glucose levels. […] After two weeks of treatment, the blood glucose level of the mice in the control group was elevated to 550 mg/dL, whereas the blood glucose level of the mice in the experimental group was maintained at about 360 mg/dL.

db/db diabetic mice [2] = experiment: Effect of oral administration of osthole on blood glucose level of db/db diabetic mice; type: in vivo; details: male db/db mice, 50 mg/kg by gastric tube once daily, five days a week for three weeks, fasted about 16 hours; before treatment about 200 mg/dL; PBS control 400 mg/dL
Method: Six male db/db diabetic mice (5 to 7 week-old, purchased from National Laboratory Animal Center (Taipei, Taiwan)) were fasted for over 8 hours and venous blood was collected for the measurement of blood glucose level. The mice were divided into two groups (control group and experimental group) on the basis of their blood glucose level and body weight. The mice in the control group were fed with PBS by gastric tube. The mice in the experimental group were fed with osthole (50 mg/kg body weight) by gastric tube. The PBS and osthole were administered once daily, five days a week for three weeks. The mice were then fasted for about 16 hours before being sacrificed and blood samples were collected for the measurement of blood glucose level. […] After three weeks of treatment, the blood glucose level of the mice in the control group was elevated to 400 mg/dL; whereas, the blood glucose level of the mice in the experimental group was maintained at about 210 mg/dL.

## COc1ccc2ccc(=O)oc2c1CC=C(C)C [osthole, 7-methoxy-8-(3-methyl-2-butenyl)-2H-1-benzopyran-2-one]
db/db diabetic mice [1]
  blood glucose level after two weeks of treatment: about 360 mg/dL
db/db diabetic mice [2]
  blood glucose level after three weeks of treatment: about 210 mg/dL
